According to patent publication US9745325B2, “Fused heterocyclic compound” (Takeda Pharmaceutical Company Limited, priority 2014, dated 2017):

How the values were obtained:
CDK8/CycC = molecular target: T1, CDK8/CycC (Homo sapiens, UniProt P49336); assay: CDK8 inhibitory activity (Kinase Tracer-236 / Eu-anti-GST fluorescence assay); assay type: binding; parameters: Percent inhibition of CDK8 activity (%): concentration or dose not given beside the values; details: test compound concentration given as '1 1.1.1\4' [sic]
T1 construct: purchased Carna Biosciences
Outline: (§1)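 Tracer-displacement TR-FRET binding assay: compound with kinase, Eu-cryptate anti-GST antibody and 60 nM Kinase Tracer-236 (pre-dilution level), 1 h at room temperature; ex 320 nm, em 615/665 nm. Percent inhibition is relative to no-compound control and a 10 μM control-compound blank.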

[1] = test system: SW480 human colorectal cancer cells; assay: Antitumor efficacy in mice bearing SW480 human colorectal cancer cells; assay type: in vivo, BALB/c female nude mice; details: oral, 14 days
Protocol: The compound of the present invention was evaluated for its antitumor efficacy in mice bearing cancer derived from SW480 human colorectal cancer cells by the following method.
SW480 human colorectal cancer cells were transplanted into 6- to 7-week-old BALB/c female nude mice (CLEA Japan) by subcutaneous injection of 2.0×10^6 cells per mouse. At 7 to 14 days after the transplantation, the size of the engrafted tumor was measured, and the tumor volume was calculated according to the following formula. Tumor volume=major axis×minor axis×minor axis×(½)
Test subjects having an engrafted tumor with a tumor volume of approximately 100 mm^3 were selected and used in the experiment (6 subjects per group). A suspension of each test compound in a 0.5% methylcellulose solution (Wako Pure Chemical Industries) was orally administered to the mice for 14 days at the dose (mg/kg, indicating the amount per dose) and the number of doses shown in Table 4. On the day before the start of the administration and the day before the completion of the administration, the tumor size was measured, and the tumor volume was calculated.
Percent tumor growth (T/C (%)) of the test compound administration group relative to the control administration group was calculated according to the following formula. T/C (%)=(tumor volume of the test compound administration group after the completion of the administration−tumor volume of the test compound administration group at the day before the start of the administration)/(tumor volume of the control administration group after the completion of the administration−tumor volume of the control administration group at the day before the start of the administration))×100

CDC2L6/CycC (CDK19) = molecular target: T2, CDC2L6/CycC (CDK19) (Homo sapiens, UniProt Q9BWU1); assay: CDK19 inhibitory activity (Kinase Tracer-236 / Eu-anti-GST fluorescence assay); assay type: binding; parameters: Percent inhibition of CDK19 activity (%): concentration or dose not given beside the values; details: test compound concentration given as '1 1.1.1\4' [sic]
T2 construct: purchased Carna Biosciences Inc
Outline: as §1

[2] = test system: human multiple myeloma RPMI8226 cells; assay: Inhibitory activity against human multiple myeloma RPMI8226 cell growth (CellTiter-Glo); assay type: cell-based; details: Homo sapiens, RPMI-8226, 192 h, 1 μM test compound, cultured for 8 days; read-out: Percent inhibition of RPMI8226 cell growth (%)
Outline: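 RPMI8226 cells (300/well) cultured 1 day at 37 °C, 5% CO2, then given compound at 1 μM for 8 days. ATP luminescence (CellTiter-Glo) read; percent inhibition relative to 0.1% DMSO wells.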

T1 sequence (P49336 whole entry): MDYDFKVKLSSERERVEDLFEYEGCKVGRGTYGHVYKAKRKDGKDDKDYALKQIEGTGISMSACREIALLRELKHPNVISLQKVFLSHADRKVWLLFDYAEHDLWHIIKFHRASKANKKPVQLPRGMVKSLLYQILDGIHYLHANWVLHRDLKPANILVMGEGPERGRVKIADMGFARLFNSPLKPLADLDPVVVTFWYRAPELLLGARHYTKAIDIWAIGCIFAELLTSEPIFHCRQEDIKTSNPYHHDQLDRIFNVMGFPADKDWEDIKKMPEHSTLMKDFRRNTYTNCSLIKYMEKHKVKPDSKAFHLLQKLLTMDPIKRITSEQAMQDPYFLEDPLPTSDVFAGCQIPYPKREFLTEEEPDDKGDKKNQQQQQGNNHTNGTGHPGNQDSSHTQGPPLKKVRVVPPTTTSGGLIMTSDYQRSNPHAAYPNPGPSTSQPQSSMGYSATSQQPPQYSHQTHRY
T1 sequence (P24863 whole entry partner): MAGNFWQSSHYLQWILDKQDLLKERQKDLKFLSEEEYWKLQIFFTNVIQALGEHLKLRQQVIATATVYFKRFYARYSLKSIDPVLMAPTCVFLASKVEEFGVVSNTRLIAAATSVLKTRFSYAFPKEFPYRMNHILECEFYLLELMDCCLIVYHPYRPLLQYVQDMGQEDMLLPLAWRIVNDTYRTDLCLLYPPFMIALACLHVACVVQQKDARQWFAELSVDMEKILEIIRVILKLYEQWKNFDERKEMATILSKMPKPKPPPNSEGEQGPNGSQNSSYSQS
T2 sequence (Q9BWU1 whole entry): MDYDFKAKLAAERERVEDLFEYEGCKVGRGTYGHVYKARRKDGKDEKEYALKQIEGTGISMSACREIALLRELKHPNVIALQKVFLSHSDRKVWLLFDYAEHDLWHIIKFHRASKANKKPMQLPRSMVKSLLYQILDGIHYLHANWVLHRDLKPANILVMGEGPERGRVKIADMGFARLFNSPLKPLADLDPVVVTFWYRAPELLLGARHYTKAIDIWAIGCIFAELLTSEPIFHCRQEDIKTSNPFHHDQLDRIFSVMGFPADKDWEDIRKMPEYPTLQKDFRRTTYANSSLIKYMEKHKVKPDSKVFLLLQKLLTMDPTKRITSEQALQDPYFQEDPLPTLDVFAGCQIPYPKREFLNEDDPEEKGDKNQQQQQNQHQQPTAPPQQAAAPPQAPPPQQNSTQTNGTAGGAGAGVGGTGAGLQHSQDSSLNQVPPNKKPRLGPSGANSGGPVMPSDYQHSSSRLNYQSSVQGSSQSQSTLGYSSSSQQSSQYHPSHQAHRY
T2 sequence (P24863 whole entry partner): as the sequence (P24863 whole entry partner) above

Compound	Percent inhibition of CDK8 activity (%) (CDK8/CycC)	T/C (%) ([1]; 15 mg/kg, 2 doses per day)	Percent inhibition of CDK19 activity (%) (CDC2L6/CycC (CDK19))	inhibition at 1 µM [2] [%]	T/C (%) ([1]; 10 mg/kg, 1 dose per day)	T/C (%) ([1]; 5 mg/kg, 1 dose per day)	T/C (%) ([1]; 15 mg/kg, 1 dose per day)
Cc1nn(C)c(C)c1Oc1sc(C(N)=O)c2c1-c1sncc1CC2 [Example 32, 8-((1,3,5-Trimethyl-1H-pyrazol-4-yl)oxy)-4,5-dihydrothieno[3,4-g][1,2]benzothiazole-6-carboxamide]	107	36	100	63			
COCCNC(=O)c1ccc(Oc2sc(C(N)=O)c3c2-c2sncc2CC3)cn1 [Example 18, 8-((6-((2-Methoxyethyl)carbamoyl)pyridin-3-yl)oxy)-4,5-dihydrothieno[3,4-g][1,2]benzothiazole-6-carboxamide]	103		100	63	30		
Cc1nc(C(=O)NCC(C)(C)O)ccc1Oc1sc(C(N)=O)c2c1-c1sncc1CC2 [Example 24, 8-((6-((2-Hydroxy-2-methylpropyl)carbamoyl)-2-methylpyridin-3-yl)oxy)-4,5-dihydrothieno[3,4-g][1,2]benzothiazole-6-carboxamide]	102		99	64	32		
Cc1c(Oc2sc(C(N)=O)c3c2-c2sncc2CC3)ccc[n+]1[O-] [Example 9, 8-((2-Methyl-1-oxidopyridin-3-yl)oxy)-4,5-dihydrothieno[3,4-g][1,2]benzothiazole-6-carboxamide]	97		98	63		30	
NC(=O)c1ccc(Oc2sc(C(N)=O)c3c2-c2sncc2CC3)cn1 [Example 13, 8-((6-Carbamoylpyridin-3-yl)oxy)-4,5-dihydrothieno[3,4-g][1,2]benzothiazole-6-carboxamide]	97		98	69			50
NC(=O)c1sc(Oc2ccc(C(=O)N3CCOCC3)cc2)c2c1CCc1cnsc1-2 [Example 3, 8-(4-(Morpholin-4-ylcarbonyl)phenoxy)-4,5-dihydrothieno[3,4-g][1,2]benzothiazole-6-carboxamide]	97		99	60			
CCOCCNC(=O)c1ccc(Oc2sc(C(N)=O)c3c2-c2sncc2CC3)cn1 [Example 117, 8-((6-((2-Ethoxyethyl)carbamoyl)pyridin-3-yl)oxy)-4,5-dihydrothieno [3,4-g][1,2]benzothiazole-6-carboxamide]	110		99	64			
COC1CN(C(=O)c2ccc(Oc3sc(C(N)=O)c4c3-c3sncc3CC4)c(C)n2)C1 [Example 113, 8-((6-((3-Methoxyazetidin-1-yl)carbonyl)-2-methylpyridin-3-yl)oxy)-4,5-dihydrothieno[3,4-g][1,2] benzothiazole-6-carboxamide]	108		101	68			
CCOC(=O)Nc1ccc(Oc2sc(C(N)=O)c3c2-c2sncc2CC3)c(C)n1 [Example 136, Ethyl (5-((6-carbamoyl-4,5-dihydrothieno[3,4-g][1,2]benzothiazol-8-yl)oxy)-6-methylpyridin-2-yl) carbamate]	107		102	66			
CN(C(=O)C1CC1)c1ccc(Oc2sc(C(N)=O)c3c2-c2sncc2CC3)cn1 [Example 108, 8-((6-((Cyclopropylcarbonyl)(methyl)amimo)pyridin-3-yl)oxy)-4,5-dihydrothieno[3,4-g][1,2]benzothiazole-6-carboxamide]	101		99	63			
COC1CN(C(=O)c2ccc(Oc3sc(C(N)=O)c4c3-c3sncc3CC4)cn2)C1 [Example 111, 8-((6-((3-Methoxyazetidin-1-yl)carbonyl)pyridin-3-yl)oxy)-4,5-dihydrothieno[3,4-g][1,2]benzothiazole-6-carboxamide]	107		100	58			
